Measured values taken from ChEMBL document CHEMBL4765285, “Discovery of orally active indirubin-3'-oxime derivatives as potent type 1 FLT3 inhibitors for acute myeloid leukemia” (Eur J Med Chem, 2020).
The source made the active and inactive calls. The rule behind the calls is not given here.

What was measured:
[1] = AUClast in ICR mouse at 10 mg/kg, iv or po measured up to 1440 mins by LC-MS/MS analysis; type: ADME, organism-based; parameters: dose 10 mg/kg, time <=1440; conditions: in vivo
[2] = Cmax in ICR mouse at 10 mg/kg, iv or po measured up to 1440 mins by LC-MS/MS analysis; type: ADME, organism-based; parameters: dose 10 mg/kg, time <=1440; conditions: in vivo
[3] = target: Receptor-type tyrosine-protein kinase FLT3 (Homo sapiens) (UniProt P36888); assay: Inhibition of human FLT3 at 100 nM in presence of ATP relative to control
[4] = tested on: Receptor-type tyrosine-protein kinase FLT3 (Homo sapiens), P36888 [D835Y]; assay: Inhibition of human FLT3 D835Y mutant at 100 nM in presence of ATP relative to control
[5] = target: T1, Vascular endothelial growth factor receptor 3 (Homo sapiens, UniProt P35916); assay: Inhibition of human FLT4 at 100 nM in presence of ATP relative to control
T1 sequence (P35916 whole entry): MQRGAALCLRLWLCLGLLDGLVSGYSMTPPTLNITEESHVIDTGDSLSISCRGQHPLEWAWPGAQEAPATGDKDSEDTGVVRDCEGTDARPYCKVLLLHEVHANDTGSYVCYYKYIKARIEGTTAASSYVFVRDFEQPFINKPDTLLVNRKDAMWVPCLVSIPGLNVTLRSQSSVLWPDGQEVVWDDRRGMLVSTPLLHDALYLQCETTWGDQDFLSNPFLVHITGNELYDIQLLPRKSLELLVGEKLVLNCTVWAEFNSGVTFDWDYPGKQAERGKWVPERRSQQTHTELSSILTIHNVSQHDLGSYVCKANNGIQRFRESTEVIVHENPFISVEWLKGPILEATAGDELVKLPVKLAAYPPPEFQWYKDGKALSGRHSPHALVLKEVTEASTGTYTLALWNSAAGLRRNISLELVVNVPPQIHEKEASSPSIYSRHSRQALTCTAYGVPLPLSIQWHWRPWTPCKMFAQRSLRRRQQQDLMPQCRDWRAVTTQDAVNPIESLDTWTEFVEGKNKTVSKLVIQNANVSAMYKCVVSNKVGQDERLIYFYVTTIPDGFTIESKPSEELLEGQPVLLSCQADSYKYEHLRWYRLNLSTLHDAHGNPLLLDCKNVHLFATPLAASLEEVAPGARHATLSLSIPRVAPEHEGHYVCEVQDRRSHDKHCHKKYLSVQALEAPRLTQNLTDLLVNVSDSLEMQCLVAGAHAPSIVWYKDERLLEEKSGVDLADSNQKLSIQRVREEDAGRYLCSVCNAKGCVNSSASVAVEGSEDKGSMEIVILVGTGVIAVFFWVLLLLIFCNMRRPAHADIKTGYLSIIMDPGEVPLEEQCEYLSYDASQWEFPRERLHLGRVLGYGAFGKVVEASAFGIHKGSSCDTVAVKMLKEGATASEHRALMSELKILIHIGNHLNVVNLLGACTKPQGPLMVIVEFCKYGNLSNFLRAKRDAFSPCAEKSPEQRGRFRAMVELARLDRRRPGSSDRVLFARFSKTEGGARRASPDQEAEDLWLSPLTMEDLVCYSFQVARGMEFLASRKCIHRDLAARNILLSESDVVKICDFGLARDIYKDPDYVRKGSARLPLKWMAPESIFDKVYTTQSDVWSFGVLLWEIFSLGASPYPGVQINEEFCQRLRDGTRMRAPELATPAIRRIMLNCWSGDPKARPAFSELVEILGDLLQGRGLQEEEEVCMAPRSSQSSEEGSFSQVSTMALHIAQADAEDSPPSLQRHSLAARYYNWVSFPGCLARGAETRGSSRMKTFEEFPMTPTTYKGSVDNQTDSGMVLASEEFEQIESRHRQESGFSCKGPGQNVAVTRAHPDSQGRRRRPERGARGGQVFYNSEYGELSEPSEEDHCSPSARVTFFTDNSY

[6] = target: T1, Vascular endothelial growth factor receptor 3; assay: Inhibition of human FLT4 in presence of ATP
[7] = target: T2, Proto-oncogene tyrosine-protein kinase Src (Homo sapiens, UniProt P12931); assay: Inhibition of human c-SRC at 100 nM in presence of ATP relative to control
T2 sequence (P12931 2-536 limits assumed): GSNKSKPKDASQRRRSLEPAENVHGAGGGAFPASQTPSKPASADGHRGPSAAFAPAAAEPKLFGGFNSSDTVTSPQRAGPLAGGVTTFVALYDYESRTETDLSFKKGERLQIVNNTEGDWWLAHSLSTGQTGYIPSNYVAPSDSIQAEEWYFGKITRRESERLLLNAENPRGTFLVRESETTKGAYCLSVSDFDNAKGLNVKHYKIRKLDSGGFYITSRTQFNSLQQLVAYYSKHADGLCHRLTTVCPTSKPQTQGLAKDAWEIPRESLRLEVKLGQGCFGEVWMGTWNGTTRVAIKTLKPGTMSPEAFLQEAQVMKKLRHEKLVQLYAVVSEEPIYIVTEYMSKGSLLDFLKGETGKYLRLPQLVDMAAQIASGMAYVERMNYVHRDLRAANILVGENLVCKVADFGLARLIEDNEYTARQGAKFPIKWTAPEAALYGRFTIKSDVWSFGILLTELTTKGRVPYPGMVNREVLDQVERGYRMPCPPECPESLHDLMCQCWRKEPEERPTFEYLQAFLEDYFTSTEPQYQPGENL

[8] = target: T2, Proto-oncogene tyrosine-protein kinase Src; assay: Inhibition of human c-SRC in presence of ATP
[9] = target: Macrophage colony-stimulating factor 1 receptor (Homo sapiens, UniProt P07333); assay: Inhibition of human FMS at 100 nM in presence of ATP relative to control
[10] = target: Tyrosine-protein kinase Mer (Homo sapiens) (UniProt Q12866); assay: Inhibition of human MER at 100 nM in presence of ATP relative to control
[11] = target: Proto-oncogene tyrosine-protein kinase receptor Ret (Homo sapiens, UniProt P07949); assay: Inhibition of human RET in presence of ATP
Proto-oncogene tyrosine-protein kinase receptor Ret, sequence (P07949 whole entry): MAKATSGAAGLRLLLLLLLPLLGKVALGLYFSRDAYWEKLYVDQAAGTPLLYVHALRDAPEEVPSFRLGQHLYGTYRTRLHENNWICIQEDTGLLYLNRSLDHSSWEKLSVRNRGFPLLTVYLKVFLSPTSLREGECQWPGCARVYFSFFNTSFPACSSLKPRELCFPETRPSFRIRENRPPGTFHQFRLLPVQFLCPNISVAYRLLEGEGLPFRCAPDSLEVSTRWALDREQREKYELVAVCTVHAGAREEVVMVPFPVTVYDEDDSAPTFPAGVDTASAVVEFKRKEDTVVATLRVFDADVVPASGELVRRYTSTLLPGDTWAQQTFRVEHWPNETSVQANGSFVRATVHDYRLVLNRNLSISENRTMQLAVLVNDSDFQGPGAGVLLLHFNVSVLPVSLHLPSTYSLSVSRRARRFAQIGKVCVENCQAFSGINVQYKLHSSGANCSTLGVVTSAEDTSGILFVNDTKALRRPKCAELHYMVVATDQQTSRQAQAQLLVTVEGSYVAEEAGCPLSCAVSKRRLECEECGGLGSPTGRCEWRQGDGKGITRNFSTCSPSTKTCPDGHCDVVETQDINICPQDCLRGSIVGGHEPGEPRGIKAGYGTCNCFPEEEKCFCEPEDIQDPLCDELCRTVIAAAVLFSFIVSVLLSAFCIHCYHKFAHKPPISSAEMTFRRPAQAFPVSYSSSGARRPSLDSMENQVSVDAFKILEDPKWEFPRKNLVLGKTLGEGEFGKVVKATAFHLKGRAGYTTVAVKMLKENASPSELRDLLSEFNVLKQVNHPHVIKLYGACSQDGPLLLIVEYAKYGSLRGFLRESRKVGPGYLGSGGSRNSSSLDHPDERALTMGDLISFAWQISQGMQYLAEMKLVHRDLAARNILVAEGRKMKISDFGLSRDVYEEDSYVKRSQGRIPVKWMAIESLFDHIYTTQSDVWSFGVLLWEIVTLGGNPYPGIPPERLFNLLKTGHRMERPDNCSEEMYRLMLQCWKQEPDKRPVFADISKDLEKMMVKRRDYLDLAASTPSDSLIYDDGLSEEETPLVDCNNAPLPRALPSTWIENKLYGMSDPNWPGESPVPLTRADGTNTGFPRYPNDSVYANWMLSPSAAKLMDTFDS

[12] = target: High affinity nerve growth factor receptor (Homo sapiens, UniProt P04629); assay: Inhibition of human TrkA in presence of ATP
[13] = target: T3, BDNF/NT-3 growth factors receptor (Homo sapiens, UniProt Q16620); assay: Inhibition of human TrkB at 100 nM in presence of ATP relative to control
[14] = target: T3, BDNF/NT-3 growth factors receptor; assay: Inhibition of human TrkB in presence of ATP
Target sequence in this assay (Q16620 whole entry): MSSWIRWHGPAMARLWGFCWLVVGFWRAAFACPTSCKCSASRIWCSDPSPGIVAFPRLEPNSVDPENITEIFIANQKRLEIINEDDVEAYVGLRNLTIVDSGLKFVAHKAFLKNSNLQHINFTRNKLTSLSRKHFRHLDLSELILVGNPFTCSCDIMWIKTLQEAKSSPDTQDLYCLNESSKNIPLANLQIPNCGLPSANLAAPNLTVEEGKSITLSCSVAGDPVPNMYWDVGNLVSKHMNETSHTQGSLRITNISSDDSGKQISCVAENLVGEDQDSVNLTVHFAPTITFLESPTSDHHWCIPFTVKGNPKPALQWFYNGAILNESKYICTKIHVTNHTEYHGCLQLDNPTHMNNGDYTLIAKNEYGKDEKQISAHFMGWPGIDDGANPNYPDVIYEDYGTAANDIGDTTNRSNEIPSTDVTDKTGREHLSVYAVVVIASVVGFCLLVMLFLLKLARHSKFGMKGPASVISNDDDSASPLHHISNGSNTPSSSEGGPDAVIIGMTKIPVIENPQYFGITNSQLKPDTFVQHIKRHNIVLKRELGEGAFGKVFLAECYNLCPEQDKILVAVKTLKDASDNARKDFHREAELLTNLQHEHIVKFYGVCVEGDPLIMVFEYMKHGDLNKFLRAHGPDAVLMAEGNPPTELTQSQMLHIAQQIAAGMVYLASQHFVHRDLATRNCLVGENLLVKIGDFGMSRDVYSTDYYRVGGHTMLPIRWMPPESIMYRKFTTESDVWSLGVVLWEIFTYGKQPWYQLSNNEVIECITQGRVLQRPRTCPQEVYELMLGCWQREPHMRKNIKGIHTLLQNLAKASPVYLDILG

[15] = target: Receptor-type tyrosine-protein kinase FLT3 (Homo sapiens, UniProt P36888, ITD); assay: Binding affinity to human FLT3 ITD mutant in presence of ATP by Lanthascreen Eu kinase binding assay
[16] = target: Platelet-derived growth factor receptor alpha (Homo sapiens) (UniProt P16234); assay: Inhibition of human PDGFRa at 100 nM in presence of ATP relative to control
[17] = target: Mast/stem cell growth factor receptor Kit (Homo sapiens) (UniProt P10721); assay: Inhibition of human c-KIT at 100 nM in presence of ATP relative to control
Mast/stem cell growth factor receptor Kit (Homo sapiens), sequence (P10721 whole entry): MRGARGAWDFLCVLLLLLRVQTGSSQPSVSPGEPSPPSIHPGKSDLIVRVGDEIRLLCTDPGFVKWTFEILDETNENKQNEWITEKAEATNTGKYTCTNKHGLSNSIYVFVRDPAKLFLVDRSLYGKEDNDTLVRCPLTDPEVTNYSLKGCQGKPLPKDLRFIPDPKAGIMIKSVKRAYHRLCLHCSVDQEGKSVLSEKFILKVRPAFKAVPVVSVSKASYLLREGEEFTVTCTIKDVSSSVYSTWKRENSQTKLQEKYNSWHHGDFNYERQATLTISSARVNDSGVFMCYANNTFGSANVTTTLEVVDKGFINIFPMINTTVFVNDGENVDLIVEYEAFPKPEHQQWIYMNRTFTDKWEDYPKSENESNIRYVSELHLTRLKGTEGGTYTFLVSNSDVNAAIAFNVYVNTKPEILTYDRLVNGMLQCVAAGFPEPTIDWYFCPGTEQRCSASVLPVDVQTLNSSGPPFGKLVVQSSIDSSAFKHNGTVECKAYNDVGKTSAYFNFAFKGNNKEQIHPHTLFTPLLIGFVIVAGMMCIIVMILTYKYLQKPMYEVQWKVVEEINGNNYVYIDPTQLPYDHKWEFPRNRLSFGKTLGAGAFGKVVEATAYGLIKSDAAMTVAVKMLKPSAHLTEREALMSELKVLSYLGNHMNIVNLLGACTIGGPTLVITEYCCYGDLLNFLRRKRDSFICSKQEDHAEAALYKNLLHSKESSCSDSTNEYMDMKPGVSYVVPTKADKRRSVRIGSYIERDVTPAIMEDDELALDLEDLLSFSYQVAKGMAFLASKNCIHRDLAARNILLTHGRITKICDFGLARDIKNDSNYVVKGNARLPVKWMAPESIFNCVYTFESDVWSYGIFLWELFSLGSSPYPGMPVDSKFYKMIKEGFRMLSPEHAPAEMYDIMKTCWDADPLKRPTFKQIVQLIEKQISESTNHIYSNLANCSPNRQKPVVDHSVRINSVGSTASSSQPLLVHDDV

[18] = target: Cyclin-dependent kinase 1 (Homo sapiens) (UniProt P06493); assay: Inhibition of human CDK1 at 100 nM in presence of ATP relative to control
[19] = target: Cyclin-dependent kinase 5 (Homo sapiens) (UniProt Q00535); assay: Inhibition of human CDK5 at 100 nM in presence of ATP relative to control
Cyclin-dependent kinase 5 (Homo sapiens), sequence (Q00535 whole entry, looked up): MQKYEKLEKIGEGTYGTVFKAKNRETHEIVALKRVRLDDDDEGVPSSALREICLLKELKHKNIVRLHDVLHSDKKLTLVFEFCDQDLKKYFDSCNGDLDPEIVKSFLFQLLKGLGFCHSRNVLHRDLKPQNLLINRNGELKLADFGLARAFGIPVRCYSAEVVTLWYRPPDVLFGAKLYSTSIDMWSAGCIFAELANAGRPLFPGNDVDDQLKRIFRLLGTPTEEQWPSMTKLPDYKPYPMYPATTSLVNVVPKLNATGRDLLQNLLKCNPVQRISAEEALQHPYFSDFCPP

[20] = target: T4, Maternal embryonic leucine zipper kinase (Homo sapiens, UniProt Q14680); assay: Inhibition of human MELK at 100 nM in presence of ATP relative to control
[21] = target: T4, Maternal embryonic leucine zipper kinase; assay: Inhibition of human MELK in presence of ATP
K562 = assay: Antiproliferative activity against human K562 cells assessed as cell growth inhibition by WST assay; type: functional
[22] = Selectivity index, ratio of GI50 for human K562 cells to GI50 for human MV4-11 cells; type: functional
[23] = target: Receptor-type tyrosine-protein kinase FLT3 (Homo sapiens) (UniProt P36888); assay: Inhibition of FLT3 in human MV4-11 cells assessed as reduction in STAT5 phosphorylation at 10 nM incubated for 4 hrs by Western blot analysis; type: cell-based
[24] = target: Receptor-type tyrosine-protein kinase FLT3 (Homo sapiens) (UniProt P36888); assay: Inhibition of FLT3 in human MV4-11 cells assessed as reduction in Erk1/2 phosphorylation at 0.01 to 1 uM incubated for 4 hrs by Western blot analysis; type: cell-based; conditions: dose 0.01-1 µM
MV4-11 [25] = assay: Antitumor activity against human MV4-11 cells xenografted in BALB/c nu/nu mouse assessed as reduction in tumor volume at 20 mg/kg, po administered once daily for 21 days measured twice daily during compound dosing; type: functional, organism-based; conditions: time 21.0 day
[26] = Toxicity in BALB/c nu/nu mouse xenografted with human MV4-11 cells assessed as body weight loss at 20 mg/kg, po administered for 21 days; type: organism-based; conditions: in vivo, 504 h, time 21 day
[27] = Acute toxicity in ICR male mouse assessed as approximate lethal dose; conditions: in vivo, read-out: ALD50
[28] = Acute toxicity in ICR mouse assessed as median lethal dose; conditions: in vivo
[29] = Acute toxicity in ICR female mouse assessed as approximate lethal dose; conditions: in vivo
MV4-11 [30] = assay: cells; conditions: Homo sapiens, MV4-11, 72 h
Description: Antiproliferative activity against human MV4-11 cells assessed as cell growth inhibition after 72 hrs by WST assay

MOLM-14 [31] = assay: cells; conditions: Homo sapiens
Description: Antiproliferative activity against wild type human MOLM14 cells assessed as cell growth inhibition by MTT assay

MOLM-14 [32] = assay: cells; conditions: Homo sapiens; remark: listed apart in the source
Description: Antiproliferative activity against human MOLM14 cells harboring ITD mutant assessed as cell growth inhibition by MTT assay

MOLM-14 [33] = assay: cells; conditions: Homo sapiens; remark: listed apart in the source
Description: Antiproliferative activity against human MOLM14 cells harboring ITD/D835Y mutant assessed as cell growth inhibition by MTT assay

MOLM-14 [34] = assay: cells; conditions: Homo sapiens; remark: listed apart in the source
Description: Antiproliferative activity against human MOLM14 cells harboring ITD/F691L mutant assessed as cell growth inhibition by MTT assay

MDA-MB-231 = assay: cells; conditions: Homo sapiens, MDA-MB-231, read-out: INH
Description: Antiproliferative activity against human MDA-MB-231 cells assessed as cell growth inhibition at 1 uM by WST assay relative to control

With `Cl.O=C1Nc2ccc(F)cc2/C1=C1/Nc2ccccc2/C1=N\OCCN1CCNCC1` the AUC(0-t) at 24 h [1] was 417 ng·h/mL, the Cmax [2] was 36.5 ng/mL and the inhibition [3] was 98%. For the same molecule, the inhibition [4] was 99%, the inhibition [5] was 89% and the IC50 [6] was 23.8 nM. It also gave an inhibition [7] of 87%, an IC50 [8] of 9.52 nM and an inhibition [9] of 92%. It also gave an inhibition [10] of 100%, an IC50 [11] of 1.21 nM and an IC50 [12] of 6.89 nM. It also gave an inhibition [13] of 100%, an IC50 [14] of 2.04 nM and a Kd [15] of less than 0.25 nM. The inhibition [16] was 5%, the inhibition [17] was 22% and the inhibition [18] was 21%. It also gave an inhibition [19] of 54%, an inhibition [20] of 86% and an IC50 [21] of 5.54 nM. It also gave a GI50 (K562) of 437 nM, a RatioGI50 [22] of 430 and an inhibition [23] of 100%. For the same molecule, the inhibition [24] was “Active”, the Activity (MV4-11 [25]) was “Active” and the Activity [26] was “Non-Toxic”. It also gave an LD50 [27] of 2000 mg/kg, an LD50 [28] of 4950 mg/kg and an ALD50 [29] of 2000 mg/kg. It also gave a GI50 (MV4-11 [30]) of 1 nM, a GI50 (MOLM-14 [31]) of 4.88 nM and a GI50 (MOLM-14 [32]) of 1.85 nM. The GI50 (MOLM-14 [33]) was 1.87 nM, the GI50 (MOLM-14 [34]) was 3.27 nM and the inhibition at 1 µM (MDA-MB-231) was 8.95%.
